Measured values from ChEMBL document CHEMBL2440076, “New triarylpyrazoles as broad-spectrum anticancer agents: design, synthesis, and biological evaluation” (Eur J Med Chem, 2013).

Legend:
Type in all cases: functional
[1] = tested on: CCRF-CEM; experiment: Growth inhibition of human CCRF-CEM cells assessed as cell growth at 10^-5 M after 48 hrs by sulforhodamine B assay; details: read-out: Activity
[2] = tested on: UACC-257; experiment: Growth inhibition of human UACC257 cells assessed as cell growth at 10^-4 M after 48 hrs by sulforhodamine B assay; details: UACC-257, 48 h, read-out: Activity
[3] = Growth inhibition of human HCC2998 cells assessed as cell growth at 10^-5 M after 48 hrs by sulforhodamine B assay; details: HCC 2998, 48 h, read-out: Activity
[4] = tested on: NCI-H226; experiment: Growth inhibition of human NCI-H226 cells assessed as cell growth at 10^-5 M after 48 hrs by sulforhodamine B assay; details: NCI-H226, 48 h, read-out: Activity
[5] = Growth inhibition of human NCI-ADR-RES cells assessed as cell growth at 10^-6 M after 48 hrs by sulforhodamine B assay; details: read-out: Activity
[6] = tested on: HCT-116; experiment: Growth inhibition of human HCT116 cells assessed as cell growth at 10^-8 M after 48 hrs by sulforhodamine B assay; details: HCT-116, 48 h, read-out: Activity
[7] = tested on: Malme-3M; experiment: Growth inhibition of human MALME-3M cells assessed as cell growth at 10^-5 M after 48 hrs by sulforhodamine B assay; details: read-out: Activity
[8] = tested on: 786-0; experiment: Growth inhibition of human 786-0 cells assessed as cell growth at 10^-8 M after 48 hrs by sulforhodamine B assay; details: 786-0, 48 h, read-out: Activity
[9] = tested on: NCI-H226; experiment: Growth inhibition of human NCI-H226 cells assessed as cell growth at 10^-7 M after 48 hrs by sulforhodamine B assay; details: NCI-H226, 48 h, read-out: Activity
[10] = tested on: SK-MEL-2; experiment: Growth inhibition of human SK-MEL-2 cells assessed as cell growth at 10^-4 M after 48 hrs by sulforhodamine B assay; details: SK-MEL-2, 48 h, read-out: Activity
[11] = tested on: CCRF-CEM; experiment: Growth inhibition of human CCRF-CEM cells assessed as cell growth at 10^-6 M after 48 hrs by sulforhodamine B assay; details: read-out: Activity
[12] = tested on: T47D; experiment: Growth inhibition of human T47D cells assessed as cell growth at 10^-8 M after 48 hrs by sulforhodamine B assay; details: read-out: Activity
[13] = Growth inhibition of human NCI-ADR-RES cells assessed as cell growth at 10^-8 M after 48 hrs by sulforhodamine B assay; details: read-out: Activity
[14] = tested on: SW-620; experiment: Growth inhibition of human SW620 cells assessed as cell growth at 10^-5 M after 48 hrs by sulforhodamine B assay; details: SW-620, 48 h, read-out: Activity
[15] = tested on: OVCAR-5; experiment: Growth inhibition of human OVCAR5 cells assessed as cell growth at 10^-7 M after 48 hrs by sulforhodamine B assay; details: OVCAR-5, 48 h, read-out: Activity
[16] = tested on: SNB-75; experiment: Growth inhibition of human SNB75 cells assessed as cell growth at 10^-4 M after 48 hrs by sulforhodamine B assay; details: SNB-75, 48 h, read-out: Activity
[17] = tested on: OVCAR-4; experiment: Growth inhibition of human OVCAR4 cells assessed as cell growth […] after 48 hrs by sulforhodamine B assay; details: OVCAR-4, 48 h, read-out: Activity
[18] = tested on: Malme-3M; experiment: Growth inhibition of human MALME-3M cells assessed as cell growth at 10^-6 M after 48 hrs by sulforhodamine B assay; details: read-out: Activity
[19] = tested on: MCF7; experiment: Growth inhibition of human MCF7 cells assessed as cell growth at 10^-5 M after 48 hrs by sulforhodamine B assay; details: MCF7, 48 h, read-out: Activity
[20] = tested on: KM12; experiment: Growth inhibition of human KM12 cells assessed as cell growth at 10^-4 M after 48 hrs by sulforhodamine B assay; details: KM12, 48 h, read-out: Activity
[21] = tested on: IGROV-1; experiment: Growth inhibition of human IGROV1 cells assessed as cell growth at 10^-8 M after 48 hrs by sulforhodamine B assay; details: IGROV-1, 48 h, read-out: Activity
[22] = tested on: HOP-62; experiment: Growth inhibition of human HOP62 cells assessed as cell growth at 10^-8 M after 48 hrs by sulforhodamine B assay; details: HOP-62, 48 h, read-out: Activity
[23] = tested on: K562; experiment: Growth inhibition of human K562 cells assessed as cell growth at 10^-7 M after 48 hrs by sulforhodamine B assay; details: K562, 48 h, read-out: Activity
[24] = tested on: HCT-15; experiment: Growth inhibition of human HCT15 cells assessed as cell growth at 10^-4 M after 48 hrs by sulforhodamine B assay; details: HCT-15, 48 h, read-out: Activity
[25] = tested on: SW-620; experiment: Growth inhibition of human SW620 cells assessed as cell growth at 10^-8 M after 48 hrs by sulforhodamine B assay; details: SW-620, 48 h, read-out: Activity
[26] = tested on: SF-539; experiment: Growth inhibition of human SF539 cells assessed as cell growth at 10^-6 M after 48 hrs by sulforhodamine B assay; details: SF-539, 48 h, read-out: Activity
[27] = tested on: HL-60(TB); experiment: Growth inhibition of human HL-60(TB) cells assessed as cell growth at 10^-6 M after 48 hrs by sulforhodamine B assay; details: HL-60, 48 h, read-out: Activity
[28] = tested on: U-251; experiment: Growth inhibition of human U251 cells assessed as cell growth at 10^-8 M after 48 hrs by sulforhodamine B assay; details: U-251, 48 h, read-out: Activity
[29] = tested on: HT-29; experiment: Growth inhibition of human HT-29 cells assessed as cell growth at 10^-4 M after 48 hrs by sulforhodamine B assay; details: HT-29, 48 h, read-out: Activity
[30] = tested on: KM12; experiment: Growth inhibition of human KM12 cells assessed as cell growth at 10^-8 M after 48 hrs by sulforhodamine B assay; details: KM12, 48 h, read-out: Activity
[31] = tested on: RPMI-8226; experiment: Growth inhibition of human RPMI8226 cells assessed as cell growth at 10^-8 M after 48 hrs by sulforhodamine B assay; details: RPMI-8226, 48 h, read-out: Activity
[32] = tested on: K562; experiment: Growth inhibition of human K562 cells assessed as cell growth at 10^-8 M after 48 hrs by sulforhodamine B assay; details: K562, 48 h, read-out: Activity
[33] = tested on: SF-268; experiment: Growth inhibition of human SF268 cells assessed as cell growth at 10^-7 M after 48 hrs by sulforhodamine B assay; details: SF-268, 48 h, read-out: Activity
[34] = tested on: U-251; experiment: Growth inhibition of human U251 cells assessed as cell growth at 10^-6 M after 48 hrs by sulforhodamine B assay; details: U-251, 48 h, read-out: Activity
[35] = tested on: 786-0; experiment: Growth inhibition of human 786-0 cells assessed as cell growth at 10^-4 M after 48 hrs by sulforhodamine B assay; details: 786-0, 48 h, read-out: Activity
[36] = tested on: A549; experiment: Growth inhibition of human A549/ATCC cells assessed as cell growth at 10^-6 M after 48 hrs by sulforhodamine B assay; details: A549, 48 h, read-out: Activity
[37] = tested on: SN12C; experiment: Growth inhibition of human SN12C cells assessed as cell growth at 10^-6 M after 48 hrs by sulforhodamine B assay; details: read-out: Activity
[38] = tested on: HCT-116; experiment: Growth inhibition of human HCT116 cells assessed as cell growth at 10^-5 M after 48 hrs by sulforhodamine B assay; details: HCT-116, 48 h, read-out: Activity
[39] = tested on: MCF7; experiment: Growth inhibition of human MCF7 cells assessed as cell growth at 10^-7 M after 48 hrs by sulforhodamine B assay; details: MCF7, 48 h, read-out: Activity

SMILES	growth at 10 µM [1]	growth at 100 µM [2]	growth at 10 µM [3]	growth at 10 µM [4]	growth at 1 µM [5]	growth at 0.01 µM [6]	growth at 10 µM [7]	growth at 0.01 µM [8]	growth at 0.1 µM [9]	growth at 100 µM [10]	growth at 1 µM [11]	growth at 0.01 µM [12]	growth at 0.01 µM [13]	growth at 10 µM [14]	growth at 0.1 µM [15]	growth at 100 µM [16]	growth at 100 µM [17]	growth at 1 µM [18]	growth at 10 µM [19]	growth at 100 µM [20]	other results
COc1cc(-c2nn(-c3cccc(NC(=O)c4ccccc4)c3)cc2-c2ccncc2)ccc1Cl	6%	24%	7%	26%	28%	97%	8%	93%	96%	-30%	27%	97%	98%	23%	93%	11%	30%	38%	10%	6%	growth at 0.01 µM [21]: 105%; growth at 0.01 µM [22]: 94%; growth at 0.1 µM [23]: 99%; growth at 100 µM [24]: 12%; growth at 0.01 µM [25]: 96%; growth at 1 µM [26]: 21%; growth at 1 µM [27]: 27%; growth at 0.01 µM [28]: 96%; growth at 100 µM [29]: 4%; growth at 0.01 µM [30]: 101%; growth at 0.01 µM [31]: 102%; growth at 0.01 µM [32]: 102%; growth at 0.1 µM [33]: 94%; growth at 1 µM [34]: 40%; growth at 100 µM [35]: 18%; growth at 1 µM [36]: 37%; growth at 1 µM [37]: 64%; growth at 10 µM [38]: 17%; growth at 0.1 µM [39]: 87%
COc1cc(-c2nn(-c3cccc(NC(=O)c4ccc(N5CCOCC5)c(C(F)(F)F)c4)c3)cc2-c2ccncc2)ccc1Cl	5%	-31%	-22%	15%	11%	99%	-14%	98%	87%	-34%	12%	102%	102%	17%	93%	2%	18%	33%	8%	-12%	growth at 0.01 µM [21]: 111%; growth at 0.01 µM [22]: 96%; growth at 0.1 µM [23]: 29%; growth at 100 µM [24]: 2%; growth at 0.01 µM [25]: 99%; growth at 1 µM [26]: -30%; growth at 1 µM [27]: 24%; growth at 0.01 µM [28]: 101%; growth at 100 µM [29]: -43%; growth at 0.01 µM [30]: 108%; growth at 0.01 µM [31]: 102%; growth at 0.01 µM [32]: 99%; growth at 0.1 µM [33]: 91%; growth at 1 µM [34]: 25%; growth at 100 µM [35]: 3%; growth at 1 µM [36]: 31%; growth at 1 µM [37]: 51%; growth at 10 µM [38]: 8%; growth at 0.1 µM [39]: 76%
